{"source": "patent US6906205B2", "about": "“Spiro and dispiro 1,2,4-trioxolane antimalarials” (Medicines for Malaria Venture MMV, priority 2002, dated 2005)"}
{"tested_on": "P. berghei ANKA strain", "assay": "treatment: 3x3 mg/kg and 3x1 mg/kg po divided doses in infected mice", "format": "in vivo, Plasmodium berghei", "conditions": "3 × 1 mg/kg days 1, 2, 3 post-infection", "protocol": "(§1) Moro NMRI male mice (Fü Albino specific pathogen free) weighing 18±2 g were infected intravenously (i.v.) with 2×10^7 P. berghei ANKA strain-infected erythrocytes from donor mice on day 0 of the experiment. From donor mice with circa 30% parasitemia, heparinized blood was taken and diluted in physiological saline to 10^8 parasitized erythrocytes per ml. An aliquot (0.2 ml) of this suspension was injected i.v. into experimental and control groups of mice. In untreated control mice, parasitemia rose regularly to 40 to 50% by day 3 post-infection and 70 to 80% by day 4 post-infection. The mice died between days 5 and 7 post-infection. Throughout the experiments, mice were kept in groups of three or five animals in Makrolon type II cages in an air-conditioned animal room at 22 to 23° C. A diet with p-aminobenzoic acid (PABA) of 45 mg (NAFAG FUTTER© food N^o 9009 PAB-45) per kg of body weight, and tap water is available ad libitum.\n(§2) OZ compounds were prepared at an appropriate concentration, either as a solution or a suspension containing SSV (0.5% w/v CMC, 0.5% v/v benzyl alcohol, 0.4% v/v Tween 80, and 0.9% w/v sodium chloride in water). They were administered per os (p.o.) in a total volume of 0.01 ml per gram of mouse. The activity of the compound was determined by a variety of methods outlined in subsequent sections. Survival time was also recorded, and survival to day 30 post-infection was considered to be a cure.\n(§3) The second experiment consists of administration of divided 3×3 mg/kg and 3×1 mg/kg po doses administered on days 1, 2, and 3 post-infection. On day 4 post-infection, blood smears of all animals were prepared and stained with Giemsa. Parasitemia was determined microscopically, and the difference between the mean value of the control group (taken as 100%) and those of the experimental groups was calculated and expressed as percent reduction. Compounds were administered orally in the SSV vehicle.", "units": {"Survival (days) p.o. SSV": "days"}}
{"smiles": "O=C(CC1CCC2(CC1)OOC1(O2)C2CC3CC(C2)CC1C3)N1CCC(O)CC1", "note": "(centres unmarked) [compound 297]", "Survival (days) p.o. SSV": 6.4}
{"smiles": "NC(=O)c1cn(CC2CCC3(CC2)OOC2(O3)C3CC4CC(C3)CC2C4)cn1", "note": "(centres unmarked) [compound 320]", "Survival (days) p.o. SSV": 8.6}
{"smiles": "Oc1ccc(C2CCC3(CC2)OOC2(O3)C3CC4CC(C3)CC2C4)cc1", "note": "(centres unmarked) [compound 288]", "Survival (days) p.o. SSV": 8.4}
{"smiles": "Cc1ccc(S(=O)(=O)O)cc1.NCCNC(=O)CC1CCC2(CC1)OOC1(O2)C2CC3CC(C2)CC1C3", "note": "(centres unmarked) [compound 305]", "Survival (days) p.o. SSV": 9.6}
{"smiles": "O=C1CN(C(=O)CC2CCC3(CC2)OOC2(O3)C3CC4CC(C3)CC2C4)CCN1", "note": "(centres unmarked) [compound 296]", "Survival (days) p.o. SSV": 7.8}
{"tested_on": "P. berghei ANKA strain", "assay": "treatment: 3x3 mg/kg and 3x1 mg/kg po divided doses in infected mice", "format": "in vivo, Plasmodium berghei", "conditions": "3 × 1 mg/kg days 1, 2, 3 post-infection, percent reduction of parasitemia day 4", "protocol": "as §1, §2, §3", "units": {"Activity (%) p.o. SSV": "%"}}
{"smiles": "O=C(CC1CCC2(CC1)OOC1(O2)C2CC3CC(C2)CC1C3)N1CCC(O)CC1", "note": "(centres unmarked) [compound 297]", "Activity (%) p.o. SSV": 22}
{"smiles": "NC(=O)c1cn(CC2CCC3(CC2)OOC2(O3)C3CC4CC(C3)CC2C4)cn1", "note": "(centres unmarked) [compound 320]", "Activity (%) p.o. SSV": 50}
{"smiles": "Oc1ccc(C2CCC3(CC2)OOC2(O3)C3CC4CC(C3)CC2C4)cc1", "note": "(centres unmarked) [compound 288]", "Activity (%) p.o. SSV": 49}
{"smiles": "Cc1ccc(S(=O)(=O)O)cc1.NCCNC(=O)CC1CCC2(CC1)OOC1(O2)C2CC3CC(C2)CC1C3", "note": "(centres unmarked) [compound 305]", "Activity (%) p.o. SSV": 87}
{"smiles": "O=C1CN(C(=O)CC2CCC3(CC2)OOC2(O3)C3CC4CC(C3)CC2C4)CCN1", "note": "(centres unmarked) [compound 296]", "Activity (%) p.o. SSV": 49}
{"tested_on": "P. berghei ANKA strain", "assay": "treatment: 3x3 mg/kg and 3x1 mg/kg po divided doses in infected mice", "format": "in vivo, Plasmodium berghei", "conditions": "3 × 3 mg/kg days 1, 2, 3 post-infection", "protocol": "as §1, §2, §3", "units": {"Survival (days) p.o. SSV": "days"}}
{"smiles": "O=C(CC1CCC2(CC1)OOC1(O2)C2CC3CC(C2)CC1C3)N1CCC(O)CC1", "note": "(centres unmarked) [compound 297]", "Survival (days) p.o. SSV": 9.4}
{"smiles": "NC(=O)c1cn(CC2CCC3(CC2)OOC2(O3)C3CC4CC(C3)CC2C4)cn1", "note": "(centres unmarked) [compound 320]", "Survival (days) p.o. SSV": 9.6}
{"smiles": "Oc1ccc(C2CCC3(CC2)OOC2(O3)C3CC4CC(C3)CC2C4)cc1", "note": "(centres unmarked) [compound 288]", "Survival (days) p.o. SSV": 10.2}
{"smiles": "Cc1ccc(S(=O)(=O)O)cc1.NCCNC(=O)CC1CCC2(CC1)OOC1(O2)C2CC3CC(C2)CC1C3", "note": "(centres unmarked) [compound 305]", "Survival (days) p.o. SSV": 12.2}
{"smiles": "O=C1CN(C(=O)CC2CCC3(CC2)OOC2(O3)C3CC4CC(C3)CC2C4)CCN1", "note": "(centres unmarked) [compound 296]", "Survival (days) p.o. SSV": 9.4}
{"tested_on": "P. berghei ANKA strain", "assay": "treatment: 3x3 mg/kg and 3x1 mg/kg po divided doses in infected mice", "format": "in vivo, Plasmodium berghei", "conditions": "3 × 3 mg/kg days 1, 2, 3 post-infection, percent reduction of parasitemia day 4", "protocol": "as §1, §2, §3", "units": {"Activity (%) p.o. SSV": "%"}}
{"smiles": "O=C(CC1CCC2(CC1)OOC1(O2)C2CC3CC(C2)CC1C3)N1CCC(O)CC1", "note": "(centres unmarked) [compound 297]", "Activity (%) p.o. SSV": 89}
{"smiles": "NC(=O)c1cn(CC2CCC3(CC2)OOC2(O3)C3CC4CC(C3)CC2C4)cn1", "note": "(centres unmarked) [compound 320]", "Activity (%) p.o. SSV": 96}
{"smiles": "Oc1ccc(C2CCC3(CC2)OOC2(O3)C3CC4CC(C3)CC2C4)cc1", "note": "(centres unmarked) [compound 288]", "Activity (%) p.o. SSV": 99}
{"smiles": "Cc1ccc(S(=O)(=O)O)cc1.NCCNC(=O)CC1CCC2(CC1)OOC1(O2)C2CC3CC(C2)CC1C3", "note": "(centres unmarked) [compound 305]", "Activity (%) p.o. SSV": 99.91}
{"smiles": "O=C1CN(C(=O)CC2CCC3(CC2)OOC2(O3)C3CC4CC(C3)CC2C4)CCN1", "note": "(centres unmarked) [compound 296]", "Activity (%) p.o. SSV": 94}
